Test results from US5801150A, “Aminopyri(mi)dine derivatives combined with amino acids, and pharmacological activities thereof” (priority 1993, dated 1998).

How the values were obtained:
[1] = Capture of the hydroxyl radical: Fenton reaction, oxidative degradation of deoxyribose (532 nm); format: biochemical; conditions: for Mean k (speed constant of the reaction with OH°): mean of 2 or 3 tests; for Mean k (speed constant of the reaction with OH°) / k Obtained (speed constant of the reaction with OH°): pH 7.4, 37° C.; for k Obtained (speed constant of the reaction with OH°): individual values of 2 or 3 tests; for speed constant with respect to mannitol: ratio to mannitol
Excerpt: The Fenton reaction, the catalytic decomposition of hydrogen peroxide (H2 O2) by the action of Fe^2+, has been used to produce the hydroxyl radical Because of its widespread use, the test of oxidative degradation of deoxyribose has been selected for our study. The hydroxyl radical generated by the Fenton reaction degrades the deoxyribose and produces malonaldehyde which forms a colored complex with thiobarbituric acid. This complex is quantified by colorimetry at a wavelength of 532 nm. This methodology can be represented by the following scheme: [drawing 11] The speed constants have been determined by using the Halliwell method with modifications. The final kinematic equation is the following [formula] A and A0 : absorbances at 532 nm of the complex in the presence and in the absence of the studied derivative. kS and kd : speed constants of the reaction of OH° with the studied derivative and deoxyribose. S and D: concentrations of studied derivative and of deoxyribose. kx : term representing the reactivity of the radical OH° reacting with reagents of the Fenton reaction. In tracing the straight line 1/A as a function of the concentration S, the speed constant kS is determined. […] The reaction is initiated by the addition of the iron EDTA complex (0.13 mM (NH4)2 Fe(SO4)2; 0.143 mM EDTA). After 15 mins. of incubation at 37° C., the reaction is stopped by the addition of 1.5 ml of cold trichloroacetic acid (TCA) (2.8%). 1 ml of this solution is mixed with 1 ml of thiobarbituric acid (TBA) (1% in 0.05M NaOH) and heated for 15 mins. at 100° C. Then, the specimens are cooled and quantified at 532 nm.

[2] = Sensing superoxide anion: auto-oxidation of adrenaline (adrenochrome at 480 nm); format: biochemical; conditions: for % of inhibition: pH 10.2; for IC50: superoxide anion, adrenaline auto-oxidation, read-out: concentration at which there is obtained 50% inhibition
Excerpt: The methods used can produce selectively a chosen type of FR (superoxide anion or hydroxyl radical). The detector must be able to detect proportionally all the FR formed.
Step of production and detection of FR: the radicular source supplies the free radical which will react with a detector to form a modified detector. This latter could be quantified directly or after interaction with an analytic reaction complement by spectrophotometric analysis. [drawing 9]
Determination either of the percent of sensing or of the speed constant of the sensor: a sensor enters into competition with the detector to form a modified sensor. There is obtained a reduction of the quantity of the modified detector which gives us, after mathematical analysis, either the speed constant of the reaction of the sensor with the radical, or the percentage of sensing of this radical by the sensor.
The methodology is the auto-oxidation of adrenaline: adrenaline plays the double role of producing superoxide anion and serving as a detector. Adrenaline which is stable at acid pH, oxidizes spontaneously at alkaline pH. This complex reaction gives after several steps, adrenochrome. The superoxide anion participates in it as an oxidizing agent. The formation of adrenochrome is followed at 480 nm. [drawing 10] Capture of the superoxide anion: oxidation of adrenaline
The reaction medium is constituted by 3.1 ml of sodium carbonate (0.05M) at pH 10.2 containing EDTA (0.1 mM). The oxidation reaction is initiated by the addition of 0.2 ml of adrenaline (0.01M, in 0.02N HCl). The formation of adrenochrome is followed for 2 mins. at 480 nm. The compounds to be studied are added with the aide of 0.02 ml of DMSO, before the addition of adrenaline.
The capacity of the substances to sense the superoxide anion is expressed in terms of percentage of inhibition (%I). [formula] A0 and A are respectively the absorbance of the detector modified in the absence and in the presence of the derivative studied.

[3] = literature value; cited from earlier work
keratinocytes, hair = conditions: topical, cited from earlier work
[4] = topical application, cited from earlier work
[5] = apart from SOD; cited from earlier work

Structure (SMILES) | Mean k (speed constant of the reaction with OH°) [1] | % of inhibition ([2]; Conc. 0.6 mM) | Literature k (speed constant of the reaction with OH°) [3] | k Obtained (speed constant of the reaction with OH°) [1] | % of inhibition ([2]; Conc. 0.1 mM) [%] | % of inhibition ([2]; Conc. 0.2 mM) [%] | % of inhibition ([2]; Conc. 0.3 mM) [%] | % of inhibition ([2]; Conc. 0.5 mM) [%] | IC50 [2] [µM] | also measured
CSCC[C@H](NC(C)=O)C(=O)O [N-acetyl-methionine] | 6.02 10^9 M^-1.s^-1 | not observed activity | 6.7 10^9 M^-1.s^-1 | – | – | – | – | – | – | inhibition ([2]; 2 mM): 10%
CSCC[C@H](N)C(=O)O [Methionine] | 5.19 10^9 M^-1.s^-1 | – | 6.5 10^9 M^-1.s^-1 | 5.02-5.36 10^9 M^-1.s^-1 | – | – | – | – | – | –
Nc1cc(N2CCCCC2)nc(N)[n+]1[O-] [Minoxidil, 2,4-diamino-6-piperidinopyrimidine-3-oxide] | 10.80 10^9 M^-1.s^-1 | 82.70% | – | 10.20-11.40 10^9 M^-1.s^-1 | 25.62 | 41.86 | 57.20 | 74.12 | ~250 | growth of keratinocytes and of hair (keratinocytes, hair; certain subjects having androgenic alopecy): stimulates the in vitro and in vivo growth of keratinocytes, and the growth of hair; time of use to appearance of the growth phenomenon (keratinocytes, hair; varies as a function of the subjects): about four months (or more); average quantity of the applied dose reaching the blood stream ([4]; average): 1.4%; quantity of the applied dose reaching the blood stream, range ([4]; range of values): 0.3 to 4.5%; % of inhibition ([2]; Conc. 0.05 mM): 11.71%
Nc1cc(N2CCCCC2)nc(N)n1 [Reduced minoxidil] | 8.81 10^9 M^-1.s^-1 | – | – | 8.47-9.16 10^9 M^-1.s^-1 | – | – | – | – | – | speed constant with respect to mannitol [1]: five times
N[C@@H](CS)C(=O)O [cysteine] | – | – | – | – | – | – | – | – | ~51 | reactivity with respect to the superoxide anion [5]: most reactive with respect to the superoxide anion; % of inhibition ([2]; cysteine 0.005 mM): 6.52%; % of inhibition ([2]; cysteine 0.008 mM): 8.58%; % of inhibition ([2]; cysteine 0.01 mM): 9.61%; % of inhibition ([2]; cysteine 0.03 mM): 31.72%; % of inhibition ([2]; cysteine 0.04 mM): 34.45%; % of inhibition ([2]; cysteine 0.05 mM): 46.71%; % of inhibition ([2]; cysteine 0.06 mM): 51.93%; % of inhibition ([2]; cysteine 0.07 mM): 57.17%
OC[C@@H](O)[C@@H](O)[C@H](O)[C@H](O)CO [Mannitol] | 1.68 10^9 M^-1.s^-1 | – | 1.8 10^9 M^-1.s^-1 | 1.52-1.84 10^9 M^-1.s^-1 | – | – | – | – | – | –
CSCCC(NC(C)=O)C(=O)Nc1cc(N2CCCCC2)nc(NC(=O)C(CCSC)NC(C)=O)[n+]1[O-] (racemic) [Disubstituted (N-acetyl-methionine), diamide of 2,4-diamino-6-piperidinopyrimidine-3-oxide and N-acetyl-D,L-methionine] | 19.45 10^9 M^-1.s^-1 | 43.75% | – | 19.40-19.50 10^9 M^-1.s^-1 | 10.56 | 15.62 | 25.99 | 38.71 | ~670 | speed constant with respect to mannitol [1]: more than eleven times; % of inhibition ([2]; Conc. 0.4 mM): 30.77%; % of inhibition ([2]; Conc. 0.7 mM): 53.22%
CSCCC(NC(C)=O)C(=O)Nc1cc(N2CCCCC2)nc(N)[n+]1[O-] (racemic) [Monosubstituted (N-acetyl-methionine), amide of 2,4-diamino-6-piperidinopyrimidine-3-oxide and N-acetyl-D,L-methionine] | 13.25 10^9 M^-1.s^-1 | 32.01% | – | 13.10-13.40 10^9 M^-1.s^-1 | 7.57 | 14.49 | 19.38 | 27.17 | – | % of inhibition ([2]; Conc. 0.4 mM): 25.71%; % of inhibition ([2]; Conc. 0.6 mM, listed as monosubstituted compound): 32%
